We go through seven molecules from ChEMBL document CHEMBL1132504, “Nucleosides and nucleotides. 183. Synthesis of 4'alpha-branched thymidines as a new type of antiviral agent” (Bioorg Med Chem Lett, 1999).

Structures are written as SMILES.

The subject of assay [1] is Human immunodeficiency virus 1. The assay can be described thus: Antiviral activity against HIV-1 (human immunodeficiency virus type 1). Type of assay: functional, organism-based.
Assay [2] in a line: Cytotoxicity against HIV-1 (human immunodeficiency virus type 1). The settings on record: Human immunodeficiency virus 1. Type of assay: functional.
Assay [3] can be described thus: Cytotoxicity against HSV-1 (herpes simplex virus). The class given is functional. As to conditions: Human alphaherpesvirus 1.
The test system of assay [4] is Human alphaherpesvirus 1. Nature of the assay: Antiviral activity against HSV-1 (herpes simplex virus). The class given is functional, organism-based.

On to `C#C[C@]1(CO)O[C@@H](n2cc(C)c(=O)[nH]c2=O)C[C@@H]1O`, for which the concentration giving a half-maximal response (EC50) was found to be 0.83 µM in assay [1] and 6.8 µM in assay [4]. Besides, the CC50 in assay [2] and in assay [3] was greater than 100 µM each time.
For the molecule `CC[C@]1(CO)O[C@@H](n2cc(C)c(=O)[nH]c2=O)C[C@@H]1O`, the EC50 came to 16.1 µM in assay [1] and 7.4 µM in assay [4]. Moreover, the CC50 in assay [2] and in assay [3] was greater than 100 µM in each case.
Consider `Cc1cn([C@H]2C[C@H](O)[C@](CO)(CCO)O2)c(=O)[nH]c1=O`, for which the EC50 in assay [1] is greater than 4.7 µM; in assay [4] it was greater than 100 µM. The cytotoxic concentration (CC50) is 4.7 µM in assay [2] and greater than 100 µM in assay [3].
In the case of `Cc1cn([C@H]2C[C@@H]3OCC[C@]3(CO)O2)c(=O)[nH]c1=O`, the EC50 in assay [1] and in assay [4] was greater than 100 µM throughout. Further, the CC50 in assay [2] and in assay [3] was greater than 100 µM throughout.
Consider `C=C[C@]1(CO)O[C@@H](n2cc(C)c(=O)[nH]c2=O)C[C@@H]1O`, for which the EC50 amounted to 6.1 µM in assay [1] and 1.9 µM in assay [4]. Further, the CC50 in assay [2] and in assay [3] was greater than 100 µM throughout.
In assay [3], `Nc1nc2c(ncn2COCCO)c(=O)[nH]1` [ACYCLOVIR] returned a CC50 greater than 100 µM.
In assay [1], `Cc1cn([C@H]2C[C@H](N=[N+]=[N-])[C@@H](CO)O2)c(=O)[nH]c1=O` [ZIDOVUDINE] returned an EC50 of 0.0017 µM. Also, it took 16.5 µM to reach half-maximal cytotoxicity in assay [2] (CC50).
